{
  "source": "the supplement of paper PMC10307832",
  "test_in_all_cases": "relative viability (nuclei count vs DMSO), 5 days (fraction); higher = more cells survive",
  "key": {"[1]": {"compound": "O=C(Nc1c[nH]nc1-c1nc2ccc(CN3CCOCC3)cc2[nH]1)NC1CC1 [AT9283] + Cc1nc(Nc2ncc(C(=O)Nc3c(C)cccc3Cl)s2)cc(N2CCN(CCO)CC2)n1 [Dasatinib] (partner 0.075 µM)", "summary_of_the_method": "(§1)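 Cells from lung cancer lines were seeded into 1536-well plates and, one day later, dosed by pin tool. Treatments were either a single drug or a fixed dose of an anchor drug with five library-drug doses (not always all listed) in √10 steps. After 5 days, nuclei were stained in a one-step fixation (final 0.05% Triton X-100, 1% formaldehyde, 1 ug/ml Hoechst) and counted on 4× images, and relative viability is the treated-to-vehicle nuclei ratio, as the median of duplicate plates.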"}, "[2]": {"compound": "C#Cc1cccc(Nc2ncnc3cc(OCCOC)c(OCCOC)cc23)c1 [Erlotinib] + COc1cc2c(Oc3ccc(NC(=O)C4(C(=O)Nc5ccc(F)cc5)CC4)cc3F)ccnc2cc1OCCCN1CCOCC1 [Foretinib] (partner 0.25 µM)", "summary_of_the_method": "as §1"}, "[3]": {"compound": "C#Cc1cccc(Nc2ncnc3cc(OCCOC)c(OCCOC)cc23)c1 [Erlotinib] + C[C@@H](Oc1cc(-c2cnn(C3CCNCC3)c2)cnc1N)c1c(Cl)ccc(F)c1Cl [Crizotinib] (partner 1 µM)", "summary_of_the_method": "as §1"}, "[4]": {"compound": "C#Cc1cccc(Nc2ncnc3cc(OCCOC)c(OCCOC)cc23)c1 [Erlotinib] + Nc1ncn([C@H]2C[C@H](O)[C@@H](CO)O2)c(=O)n1 [Decitabine] (partner 2 µM)", "summary_of_the_method": "as §1"}, "[5]": {"compound": "C#Cc1cccc(Nc2ncnc3cc(OCCOC)c(OCCOC)cc23)c1 [Erlotinib] + CCNC(=O)c1noc(-c2cc(C(C)C)c(O)cc2O)c1-c1ccc(CN2CCOCC2)cc1 [Luminespib] (partner 0.01 µM)", "summary_of_the_method": "as §1"}},
  "data": [
    {"cell line": "NCI-H441", "values": [
      {"measurement": "relative viability", "setting": "[1]; first compound 0.003 µM", "value": 0.567},
      {"measurement": "relative viability", "setting": "[1]; first compound 0.03 µM", "value": 0.49},
      {"measurement": "relative viability", "setting": "[1]; first compound 0.09487 µM", "value": 0.318},
      {"measurement": "relative viability", "setting": "[1]; first compound 0.3 µM", "value": 0.209},
      {"measurement": "relative viability", "setting": "[2]; first compound 0.02 µM", "value": 1.01},
      {"measurement": "relative viability", "setting": "[2]; first compound 0.2 µM", "value": 1.02},
      {"measurement": "relative viability", "setting": "[2]; first compound 0.6325 µM", "value": 0.933},
      {"measurement": "relative viability", "setting": "[2]; first compound 2 µM", "value": 0.883},
      {"measurement": "relative viability", "setting": "[3]; first compound 0.02 µM", "value": 0.831},
      {"measurement": "relative viability", "setting": "[3]; first compound 0.2 µM", "value": 0.751},
      {"measurement": "relative viability", "setting": "[3]; first compound 0.6325 µM", "value": 0.772},
      {"measurement": "relative viability", "setting": "[3]; first compound 2 µM", "value": 0.677},
      {"measurement": "relative viability", "setting": "[4]; first compound 0.02 µM", "value": 0.232},
      {"measurement": "relative viability", "setting": "[4]; first compound 0.2 µM", "value": 0.26},
      {"measurement": "relative viability", "setting": "[4]; first compound 0.6325 µM", "value": 0.215},
      {"measurement": "relative viability", "setting": "[4]; first compound 2 µM", "value": 0.257},
      {"measurement": "relative viability", "setting": "[5]; first compound 0.02 µM", "value": 0.259},
      {"measurement": "relative viability", "setting": "[5]; first compound 0.2 µM", "value": 0.32},
      {"measurement": "relative viability", "setting": "[5]; first compound 0.6325 µM", "value": 0.345},
      {"measurement": "relative viability", "setting": "[5]; first compound 2 µM", "value": 0.345}
    ]}
  ]
}
